Experimental findings from ChEMBL document CHEMBL4665733, “Selective thyroid hormone receptor β agonists with oxadiazolone acid isosteres” (Bioorg Med Chem Lett, 2020) are described below.

Active and inactive are the calls of the source.

One series is filed under the species Homo sapiens. The series is described as follows: Selectivity index, ratio of EC50 for THRalpha (unknown origin) to EC50 for THRbeta (unknown origin).
The nature of series [1]: Half life in Beagle dog at 10 mg/kg, po measured up to 24 hrs by LC-MS/MS analysis. The format is ADME, organism-based, Canis lupus familiaris. Conditions: in vivo.
Series [2] is described as follows: Half life in Sprague-Dawley rat at 10 mg/kg, po measured up to 24 hrs by LC-MS/MS analysis. The format is ADME, organism-based. The settings on record: in vivo.
Series [3] in a line: Half life in cynomolgus monkey at 10 mg/kg, po measured up to 24 hrs by LC-MS/MS analysis. The format is ADME, organism-based, Macaca fascicularis. The settings on record: in vivo.
The species named for another series is Rattus norvegicus. The series is described as follows: Antihyperlipidemic activity in high cholesterol diet-induced Sprague-Dawley rat model of hypercholesterolemia assessed as reduction in serum total cholesterol level after 24 hrs. The format is functional, organism-based.
Series [4] can be described thus: Tmax in Sprague-Dawley rat at 3 mg/kg, ip. The format is ADME, organism-based. Conditions: in vivo.
Series [5] is described as follows: MRT in Sprague-Dawley rat at 3 mg/kg, ip. Conditions: in vivo. The format is ADME, organism-based.
The test system of series [6] is Mus musculus. The series is described as follows: Antifibrotic activity in CCl4-induced C57BL/6J mouse model of liver fibrosis assessed as reduction in liver fibrosis at 30 mg/kg, po via gavage administered once daily for 28 days by Sirius Red staining based histological analysis. The settings on record: time 28.0 day. The format is functional, organism-based.
For series [7], the system named is Mus musculus. Kind of series: Agonist activity at THRbeta in C57BL/6J mouse model of NASH assessed as increase in CYP7A1 gene expression in liver at 30 mg/kg, po via gavage administered once daily for 28 days. The settings on record: time 28.0 day. The format is functional, organism-based.
A short description of series [8]: AUC (0 to 24 hrs) in C57BL/6J mouse at 30 mg/kg, po administered via gavage as single dose. The format is ADME, organism-based. Also noted: time < 24 hr, route oral, dose 30 mg/kg. Conditions: in vivo.
Series [9] can be described thus: Plasma clearance in Sprague-Dawley rat at 1 mg/kg, iv and 2 mg/kg, po. The format is ADME, organism-based.
Series [10] is described as follows: Dissociation constant, pKa of compound. The format is physicochemical.
Series [11] relates to Mus musculus. Kind of series: Anti-hepatosteatosis activity in C57BL/6J mouse model of high fat-induced obesity assessed as reduction in liver steatosis at 30 mg/kg, po via gavage administered once daily for 28 days by hematoxylin-eosin staining based histological analysis. The format is functional, organism-based. The settings on record: time 28.0 day.
Series [12] can be described thus: Volume of distribution at steady state in Sprague-Dawley rat at 1 mg/kg, iv and 2 mg/kg, po. Conditions: in vivo, read-out: Vdss. The format is ADME, organism-based.
Series [13] in a line: Oral bioavailability in Sprague-Dawley rat at 2 mg/kg. The settings on record: in vivo. The format is ADME, organism-based.
The test system of series [14] is Mus musculus. Kind of series: Agonist activity at THRbeta in C57BL/6J mouse model of NASH assessed as increase in Dio1 gene expression in liver at 30 mg/kg, po via gavage administered once daily for 28 days. The format is functional, organism-based. Conditions: time 28.0 day.

For orientation: half-life means the time needed for the level to fall by half in the phase considered. By Tmax is commonly meant the time at which the peak concentration occurs. Broadly, the MRT is the average time that molecules of a dose stay in the body. As usually defined, the AUC(0-t) is the area under the concentration-time curve up to a stated or last time point. In general, pKa refers to the pH at which an ionisable group is half protonated. By bioavailability is commonly meant dose-corrected exposure relative to a reference, in per cent.

In the case of `CC(C)c1cc(Oc2c(Cl)cc(NC(C)c3noc(=O)[nH]3)cc2Cl)nn(C)c1=O` (racemic), the Ratio EC50 in the series filed under Homo sapiens is 0.2.

For `CC(C)c1cc(C(=O)c2c(Cl)cc(NC(=O)c3noc(=O)[nH]3)cc2Cl)nn(C)c1=O`, the Ratio EC50 in the series filed under Homo sapiens was 6.1.

Turning to `CC(C)c1cc(Cc2c(Cl)cc(NC(=O)c3noc(=O)[nH]3)cc2Cl)nn(C)c1=O`, the Ratio EC50 in the series listed under Homo sapiens turned out to be 14.5. The same measure, in the same setting: in the case of `CC(CO)c1cc(Oc2c(Cl)cc(NC(=O)c3noc(=O)[nH]3)cc2Cl)nn(C)c1=O` (racemic) it was 9.2; in that of `CC(C)(O)c1cc(Oc2c(Cl)cc(NC(=O)c3noc(=O)[nH]3)cc2Cl)n[nH]c1=O`, 11.1; in that of `CC(C)c1cc(Cc2c(Cl)cc(NCc3noc(=O)[nH]3)cc2Cl)nn(C)c1=O`, 1.7. Still for that read-out and setting: then `CC(C)c1cc(Oc2c(Cl)cc(NCc3noc(=O)[nH]3)cc2Cl)n[nH]c1=O`, with 1.8; and `CC(C)c1cc(Oc2c(Cl)cc(N(C)Cc3noc(=O)[nH]3)cc2Cl)nn(C)c1=O`, with 0.5.

Take `CC(C)c1cc(Oc2c(Cl)cc(-n3nc(C#N)c(=O)[nH]c3=O)cc2Cl)n[nH]c1=O`: the Ratio EC50 in the series filed under Homo sapiens was 15.

Regarding `CC(C)c1cc(Oc2c(Cl)cc(NCc3noc(=O)[nH]3)cc2Cl)nn(C)c1=O`, the Ratio EC50 in the series listed under Homo sapiens is 8.6. As for `CC(C)c1cc(C(=O)c2c(Cl)cc(NCc3noc(=O)[nH]3)cc2Cl)nn(C)c1=O`, the Ratio EC50 in the series listed under Homo sapiens was determined as 0.8. Same read-out and setting: in the case of `CC(O)c1cc(Oc2c(Cl)cc(NC(=O)c3noc(=O)[nH]3)cc2Cl)n[nH]c1=O` (racemic) it was 16.5. For the compound `Cc1cc(OCP(=O)(O)O)cc(C)c1Cc1ccc(O)c(C(C)C)c1` [MB07344], the half-life in series [1] was 10.2 h; in [2], 9.3 h; in [3], 6.5 h. Besides, the Ratio EC50 in the series listed under Homo sapiens came to 2.1. `CC(C)c1cc(Oc2c(Cl)cc(NC(=O)c3noc(=O)[nH]3)cc2Cl)n[nH]c1=O`: the Activity result in the series filed under Rattus norvegicus is “Dose-dependent effect”. In addition, in the series listed under Homo sapiens, the Ratio EC50 was 21.6. Turning to `CC(C)c1cc(Oc2c(Cl)cc(NC(=O)c3noc(=O)[nH]3)cc2Cl)nn(C)c1=O`, the time of peak concentration (Tmax) in series [4] was determined as 1 h. This compound registered a mean residence time (MRT) in series [5] of 1.8 h. Also, the outcome with Mus musculus [6], in the series on Mus musculus [7], with Mus musculus [11] and in the series on Mus musculus [14] was Active. For the same compound, the exposure AUC(0-t) at 24 h in series [8] turned out to be 17200 ng·h/mL. In addition, the clearance in [9] was 13 mL/min/kg. Further, in series [10], the pKa was 4.5. For the same compound, the Vd in series [12] turned out to be 0.53 L/kg. The Activity result in the series filed under Rattus norvegicus was “Dose-dependent effect”. In addition, the bioavailability in [13] worked out at 24%. In the series filed under Homo sapiens, the Ratio EC50 turned out to be 14.1. For the compound `CC(C)(C)c1cc(Oc2c(Cl)cc(NC(=O)c3noc(=O)[nH]3)cc2Cl)n[nH]c1=O`, the Ratio EC50 in the series listed under Homo sapiens was found to be 12.3. Regarding `CCC(O)c1cc(Oc2c(Cl)cc(NC(=O)c3noc(=O)[nH]3)cc2Cl)n[nH]c1=O` (racemic), the Ratio EC50 in the series filed under Homo sapiens turned out to be 16.2.
